Data published in US6743436B1, “Anesthetic composition for intravenous injection comprising propofol” (Kuhnil Pharm. Co., Ltd., priority 1999, dated 2004).

Legend:
[1] = tested on: albino rat; test: Experiment 7: hemolysis after intravenous injection; format: in vivo; conditions: for Af (absorbance of released hemoglobin at 540 nm) / Hemolysis: i.v. over one minute, arterial blood
Protocol: To determine the hemolysis of the formulation of Example 6, albino rat was incised with scissor at the upper part of left femoral region, at which each of vein and artery was cannulated, and then 10 mg/kg of the formulated drug was intravenously injected over one minute. After 0, 5, 10, 15, 30, 45 and 60 minutes, blood was collected from femoral artery in an amount of 100 μl each time. Blood was obtained after heparin-physiological saline and some blood filled in the catheter were removed few, seconds before collecting blood each time. After blood was collected, a small amount of heparin-physiological saline was introduced into the catheter connecting tube to prevent blood coagulation. 100 μl of the collected blood were mixed with 500 μl of physiological saline and then centrifuged with 3000 rpm for 10 minutes. 100 μl of the supernatant were transferred into microplate and the absorbance of released hemoglobin was measured at 540 nm. Hemolysis (%) was calculated according to the following equation. The control group used 70% propylene glycol (PG) solution.
In the above equation, A100 is the absorbance at the time of 100% hemolysis (100 μl of blood was mixed with 500 μl of water); A0 is the absorbance at the time of 0% hemolysis as the blank (Before injection of the drug, normal blood was mixed with 500 μl of physiological saline for the blank test), and Af is the absorbance of each specimen.

[2] = background statement; cited from earlier work

Structure (SMILES) | Af (absorbance of released hemoglobin at 540 nm) ([1]; 5 min.) | Hemolysis ([1]; 5 min.) | Af (absorbance of released hemoglobin at 540 nm) ([1]; 10 min.) | Hemolysis ([1]; 10 min.) | Af (absorbance of released hemoglobin at 540 nm) ([1]; 15 min.) | Hemolysis ([1]; 15 min.) | Af (absorbance of released hemoglobin at 540 nm) ([1]; 30 min.) | Hemolysis ([1]; 30 min.) | Af (absorbance of released hemoglobin at 540 nm) ([1]; 45 min.) | Hemolysis ([1]; 45 min.) | Af (absorbance of released hemoglobin at 540 nm) ([1]; 60 min.) | Hemolysis ([1]; 60 min.) | Af (absorbance of released hemoglobin at 540 nm) ([1]; initial) | Hemolysis ([1]; initial) | absorbance relative to the formulation of Example 6 ([1]; i.v., 0-60 min) | hemolysis (in words) ([1]; i.v., 0-60 min) | octanol water partition coefficient [2] | pKa [2]
CC(O)CO (stereo not drawn) [70% PG, propylene glycol] | 0.086 | 1.94% | 0.091 | 2.06% | 0.067 | 1.47% | 0.038 | 0.76% | 0.047 | 0.98% | 0.041 | 0.84% | 0.081 | 1.82% | 80-90 times | causes hemolysis |  | 
CC(C)c1cccc(C(C)C)c1O [propofol, 2,6-diisopropylphenol] |  |  |  |  |  |  |  |  |  |  |  |  |  |  |  |  | 4.33 | 10.4
